Assay results: ChEMBL document CHEMBL2057194, “Structure-activity relationships, ligand efficiency, and lipophilic efficiency profiles of benzophenone-type inhibitors of the multidrug transporter P-glycoprotein” (J Med Chem, 2012)

Molecular target: ATP-dependent translocase ABCB1 (Homo sapiens, UniProt P08183)
Test: Inhibition of P-glycoprotein-mediated daunorubicin efflux from human CCRF-CEM/VCR1000 cells after 240 secs by FACS flow cytometric analysis

ATP-dependent translocase ABCB1, sequence (P08183 whole entry): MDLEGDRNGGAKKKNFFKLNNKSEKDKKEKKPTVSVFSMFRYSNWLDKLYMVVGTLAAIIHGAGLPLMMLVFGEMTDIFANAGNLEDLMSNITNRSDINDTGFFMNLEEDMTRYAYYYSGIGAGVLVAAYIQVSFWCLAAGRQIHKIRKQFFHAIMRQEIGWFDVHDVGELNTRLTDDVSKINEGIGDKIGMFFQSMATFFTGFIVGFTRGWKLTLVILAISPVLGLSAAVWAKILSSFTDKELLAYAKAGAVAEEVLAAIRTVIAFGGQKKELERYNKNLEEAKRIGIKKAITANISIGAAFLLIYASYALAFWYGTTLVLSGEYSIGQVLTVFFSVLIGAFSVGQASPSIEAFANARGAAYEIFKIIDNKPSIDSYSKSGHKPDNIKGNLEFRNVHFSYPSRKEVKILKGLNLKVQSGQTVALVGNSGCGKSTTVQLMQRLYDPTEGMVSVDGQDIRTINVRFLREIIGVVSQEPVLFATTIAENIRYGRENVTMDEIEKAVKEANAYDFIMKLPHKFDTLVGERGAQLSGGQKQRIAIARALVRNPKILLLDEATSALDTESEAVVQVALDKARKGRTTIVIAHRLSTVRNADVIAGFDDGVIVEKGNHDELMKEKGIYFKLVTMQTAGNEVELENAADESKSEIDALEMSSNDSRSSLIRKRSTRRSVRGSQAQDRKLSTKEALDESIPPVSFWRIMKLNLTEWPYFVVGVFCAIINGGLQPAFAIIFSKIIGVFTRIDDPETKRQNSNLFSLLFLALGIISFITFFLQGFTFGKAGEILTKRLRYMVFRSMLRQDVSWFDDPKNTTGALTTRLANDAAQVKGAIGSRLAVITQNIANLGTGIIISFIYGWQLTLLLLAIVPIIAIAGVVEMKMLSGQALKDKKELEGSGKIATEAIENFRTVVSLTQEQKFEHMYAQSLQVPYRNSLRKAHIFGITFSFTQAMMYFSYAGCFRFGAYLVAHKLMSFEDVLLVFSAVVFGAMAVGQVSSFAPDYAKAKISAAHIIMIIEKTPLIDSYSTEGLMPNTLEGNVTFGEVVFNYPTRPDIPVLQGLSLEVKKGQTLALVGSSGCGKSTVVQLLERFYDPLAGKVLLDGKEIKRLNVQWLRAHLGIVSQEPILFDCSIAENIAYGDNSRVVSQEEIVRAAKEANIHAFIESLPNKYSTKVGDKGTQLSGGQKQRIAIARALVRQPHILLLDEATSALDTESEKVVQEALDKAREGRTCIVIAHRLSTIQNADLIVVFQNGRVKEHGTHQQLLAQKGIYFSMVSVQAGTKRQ

Compound | IC50 (read-out: IC50) [nM] | IC50 (read-out: pIC50 (converted)) [nM]
O=C(c1ccccc1)c1ccccc1OCC(O)CN1CCC(O)(c2ccccc2)CC1 (configuration not stated) | 310 | –
O=C(c1ccccc1)c1ccccc1OCC(O)CN1CCN(c2ccc(F)cc2)CC1 (configuration not stated) | 150 | –
O=C(c1ccccc1)c1ccc(OCC(O)CN2CCOCC2)cc1 (configuration not stated) | 5320 | –
O=C(c1ccccc1)c1ccc(OCC(O)CN2CCCCC2)cc1 (configuration not stated) | 2180 | –
O=C(c1ccccc1)c1ccccc1OCC(O)CN1CCOCC1 (configuration not stated) | 13400 | –
Cc1cccc(N2CCN(CC(O)COc3cccc(C(=O)c4ccccc4)c3)CC2)c1C (configuration not stated) | 170 | –
Cc1cccc(N2CCN(CC(O)COc3ccc(C(=O)c4ccccc4)cc3)CC2)c1C (configuration not stated) | 650 | –
O=C(c1ccccc1)c1cccc(OCC(O)CN2CCN(c3ccc(F)cc3)CC2)c1 (configuration not stated) | 580 | –
O=C(c1ccccc1)c1ccc(OCC(O)CN2CCN(c3ccc(F)cc3)CC2)cc1 (configuration not stated) | 970 | –
O=C(c1ccccc1)c1ccccc1OCC(O)CN1CCCCC1 (configuration not stated) | 1200 | –
O=C(c1ccccc1)c1cccc(OCC(O)CN2CCCCC2)c1 (configuration not stated) | 3550 | –
Cc1ccccc1N1CCN(CC(O)COc2cccc(C(=O)c3ccccc3)c2)CC1 (configuration not stated) | 200 | –
Cc1ccccc1N1CCN(CC(O)COc2ccc(C(=O)c3ccccc3)cc2)CC1 (configuration not stated) | 500 | –
CCCNCC(O)COc1ccccc1C(=O)c1ccc(C)cc1 (configuration not stated) | 1210 | –
Cc1ccc(NC(=O)N2CCN(CC(O)COc3ccccc3C(=O)c3ccccc3)CC2)cc1 (configuration not stated) | 480 | –
Cc1ccc(NC(=S)N2CCN(CC(O)COc3ccccc3C(=O)c3ccccc3)CC2)cc1 (configuration not stated) | 380 | –
O=C(c1ccccc1)c1ccccc1OCC(O)CN1CCN(CC(O)COc2ccccc2C(=O)c2ccccc2)CC1 (configuration not stated) | 50 | –
CC(=O)c1cc(C)ccc1OCC(O)CN1CCN(CC(O)COc2ccccc2C(=O)c2ccccc2)CC1 (configuration not stated) | 9480 | –
CCOC/C=C/c1ccc(-c2nc(-c3ccc(NC(C)C)cc3)c(-c3ccc(NC(C)C)cc3)[nH]2)cc1 | – | 31.6
O=C(CCc1ccccc1)c1ccccc1OCC(O)CN1CCCCC1 (configuration not stated) | – | 603
O=C(CCc1ccccc1)c1ccccc1OCC(O)CN1CCC(O)(c2ccccc2)CC1 (configuration not stated) | – | 57.5
COc1cc2c(cc1OC)CN(CCc1ccc(NC(=O)c3cc(OC)c(OC)cc3NC(=O)c3cnc4ccccc4c3)cc1)CC2 | – | 33.1
